Molecular target: T1, GST-ALK5 (Homo sapiens, UniProt P36897)
T1 sequence (P36897 34-503): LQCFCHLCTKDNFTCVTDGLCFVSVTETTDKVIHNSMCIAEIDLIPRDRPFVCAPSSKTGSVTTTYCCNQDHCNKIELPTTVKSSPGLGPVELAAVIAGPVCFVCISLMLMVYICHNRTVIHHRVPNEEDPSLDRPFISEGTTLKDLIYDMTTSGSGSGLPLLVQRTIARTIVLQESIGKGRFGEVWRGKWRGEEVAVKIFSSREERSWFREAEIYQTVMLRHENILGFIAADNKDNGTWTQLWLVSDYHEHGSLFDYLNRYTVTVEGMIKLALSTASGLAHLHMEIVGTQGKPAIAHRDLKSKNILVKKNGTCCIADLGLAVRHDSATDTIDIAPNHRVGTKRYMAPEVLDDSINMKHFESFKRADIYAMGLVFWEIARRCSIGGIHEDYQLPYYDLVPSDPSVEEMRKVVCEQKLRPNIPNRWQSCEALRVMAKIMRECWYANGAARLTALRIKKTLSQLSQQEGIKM
Assay: In-vitro (enzyme) flashplate kinase assay, inhibition of TGF-beta receptor I kinase
Assay type: biochemical
Conditions: 384-well flashplate, GST-ALK5, GST-SMAD2 substrate, 3 mM ATP, 30° C., 45 min
Description: In-Vitro (Enzyme) Assay for Determination of the Efficacy of Inhibitors of the Inhibition of TGF-Beta-Mediated Effects
The kinase assay was carried out as 384-well flashplate assay. 31.2 nM of GST-ALK5, 439 nM of GST-SMAD2 and 3 mM of ATP (with 0.3 μCi of ^33P-ATP/well) were incubated in a total volume of 35 μl (20 mM of HEPES, 10 mM of MgCl2, 5 mM of MnCl2, 1 mM of DTT, 0.1% of BSA, pH 7.4) without or with test substance (5-10 concentrations) at 30° C. for 45 min. The reaction was stopped using 25 μl of 200 mM EDTA solution, filtered with suction at room temperature after 30 min, and the wells were washed with 3 times 100 μl of 0.9% NaCl solution. Radioactivity was measured in the TopCount. The IC50 values were calculated using RS1 (Table 1). Above and below, all temperatures were indicated in ° C.

Row | SMILES | IC50 [nM]
1 | CC(=O)c1cccc(-c2cnc3sc(NCCc4ccncc4)nn23)c1 [No 360] | 700
2 | COc1cc(-c2cnc3sc(NCCOc4ccccc4)nn23)cc(OC)c1OC [No 277, (2-Phenoxy-ethyl)-[5-(3,4,5-trimethoxy-phenyl)-imidazo[2,1-b][1,3,4]thiadiazol-2-yl]-amine] | 780
3 | COc1cc(-c2cnc3sc(NCCCO)nn23)cc(OC)c1OC [No 456, 3-[5-(3,4,5-Trimethoxy-phenyl)-imidazo[2,1-b][1,3,4]thiadiazol-2 - ylamino]-propan-1-ol] | 740
4 | CC(=O)c1cccc(-c2cnc3sc(NCCN4CCOCC4)nn23)c1 [No 158, 1-{3-[2-(2-Morpholin-4-yl-ethylamino)-imidazo[2,1-b][1,3,4]thiadiazol-5-yl]-phenyl}-ethanone] | 780
5 | COc1cc(-c2cnc3sc(NCc4cccs4)nn23)ccc1O [No 307, 2-Methoxy-4-{2-[(thiophen-2-ylmethyl)-amino]-imidazo[2,1-b][1,3,4]thiadiazol-5-yl}-phenol] | 740
6 | COc1cc(-c2cnc3sc(NCC(C)C)nn23)cc(OC)c1OC [No 266, Isobutyl-[5-(3,4,5-trimethoxy-phenyl)-imidazo[2,1-b][1,3,4]thiadiazol-2-yl]-amine] | 820
7 | COc1cc(-c2cnc3sc(NCC4CCOCC4)nn23)cc(OC)c1OC [No 274, (Tetrahydro-pyran-4-ylmethyl)-[5-(3,4,5-trimethoxy-phenyl)-imidazo[2,1-b][1,3,4]thiadiazol-2-yl]-amine] | 810

The next compounds have a lower IC50 than those just listed; values first:

Row | IC50 [nM] | SMILES
8 | 670 | COc1cc(-c2cnc3sc(NCc4cccnc4)nn23)cc(OC)c1OC [No 416, Pyridin-3-ylmethyl-[5-(3,4,5-trimethoxy-phenyl)-imidazo[2,1-b][1,3,4]thiadiazol-2-yl]-amine]
9 | 570 | COc1cc(-c2cnc3sc(NC4CCC(O)CC4)nn23)cc(OC)c1OC (stereo not shown) [No 363, 4-[5-(3,4,5-Trimethoxy-phenyl)-imidazo[2,1-b][1,3,4]thiadiazol-2-ylamino]-cyclohexanol]
10 | 490 | COc1cc(-c2cnc3sc(NCCN4CCOCC4)nn23)cc(OC)c1OC [No 495, (2-Morpholin-4-yl-ethyl)-[5-(3,4,5-trimethoxy-phenyl)-imidazo[2,1-b][1,3,4]thiadiazol-2-yl]-amine]
11 | 480 | COc1cc(-c2cnc3sc(NCCc4ccncc4)nn23)cc(OC)c1OC [No 442, (2-Pyridin-4-yl-ethyl)-[5-(3,4,5-trimethoxy-phenyl)-imidazo[2,1-b][1,3,4]thiadiazol-2-yl]-amine]
12 | 360 | CC(=O)c1cccc(-c2cnc3sc(NCCc4ccc(S(N)(=O)=O)cc4)nn23)c1 [No 490, 4-{2-[5-(3-Acetyl-phenyl)-imidazo[2,1-b][1,3,4]thiadiazol-2-ylamino]-ethyl}-benzenesulfonamide]
13 | 330 | COc1cc(-c2cnc3sc(NCc4cccs4)nn23)cc(OC)c1OC [No 165, Thiophen-2-ylmethyl-[5-(3,4,5-trimethoxy-phenyl)-imidazo[2,1-b][1,3,4]thiadiazol-2-yl]-amine]
14 | 270 | COc1cc(-c2cnc3sc(NCCc4ccccn4)nn23)cc(OC)c1OC [No 20, (2-Pyridin-2-yl-ethyl)-[5-(3,4,5-trimethoxy-phenyl)-imidazo[2,1-b][1,3,4]thiadiazol-2-yl]-amine]
15 | 240 | Cc1cc(-c2cnc3sc(NCc4ccco4)nn23)cc(C)c1O [No 38, 4-{2-[(Furan-2-ylmethyl)-amino]-imidazo[2,1-b][1,3,4]thiadiazol-5-yl}-2,6-dimethyl-phenol]
16 | 160 | COc1cc(-c2cnc3sc(NCCc4ccc(S(N)(=O)=O)cc4)nn23)cc(OC)c1OC [No 464, 4-{2-[5-(3,4,5-Trimethoxy-phenyl)-imidazo[2,1-b][1,3,4]thiadiazol-2-ylamino]-ethyl}-benzenesulfonamide]

Reference: patent publication US8389554B2, “Imidazothiadiazole derivatives” (Merck Patent Gesellschaft mit Beschränkter Haftung, priority 2008, dated 2013)
